{
  "source": "ChEMBL document CHEMBL1201862",
  "about": "“PubChem BioAssay data set” (2004)",
  "key": {"[1]": {"target": "Eukaryotic translation initiation factor 4H (Homo sapiens, UniProt Q15056)", "test": "human eIF4H binding inhibitors, primary screen, translation initiation inhibitor project, biochemical, uHTS, fluorescence polarization (AID 2012)"}, "[2]": {"target": "T1, Mannose-6-phosphate isomerase (Homo sapiens, UniProt P34949)", "T1 sequence (P34949 whole entry)": "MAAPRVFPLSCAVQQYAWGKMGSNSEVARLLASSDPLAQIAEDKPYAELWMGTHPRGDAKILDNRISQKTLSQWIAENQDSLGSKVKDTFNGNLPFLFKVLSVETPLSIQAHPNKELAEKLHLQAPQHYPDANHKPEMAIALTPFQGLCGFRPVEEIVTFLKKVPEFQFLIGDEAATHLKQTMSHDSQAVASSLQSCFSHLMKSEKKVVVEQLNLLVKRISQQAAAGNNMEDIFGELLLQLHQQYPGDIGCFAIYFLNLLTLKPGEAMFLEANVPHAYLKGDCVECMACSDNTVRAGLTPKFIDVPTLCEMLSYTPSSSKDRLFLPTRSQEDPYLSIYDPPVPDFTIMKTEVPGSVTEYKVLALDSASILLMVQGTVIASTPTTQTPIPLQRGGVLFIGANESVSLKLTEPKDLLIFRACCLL", "test": "human PMI inhibitors, high substrate, primary screen, biochemical, fluorescence intensity, high mannose 6-phosphate (AID 1220)"}, "[3]": {"target": "Polyadenylate-binding protein 1 (Homo sapiens, UniProt P11940)", "sequence (P11940 whole entry)": "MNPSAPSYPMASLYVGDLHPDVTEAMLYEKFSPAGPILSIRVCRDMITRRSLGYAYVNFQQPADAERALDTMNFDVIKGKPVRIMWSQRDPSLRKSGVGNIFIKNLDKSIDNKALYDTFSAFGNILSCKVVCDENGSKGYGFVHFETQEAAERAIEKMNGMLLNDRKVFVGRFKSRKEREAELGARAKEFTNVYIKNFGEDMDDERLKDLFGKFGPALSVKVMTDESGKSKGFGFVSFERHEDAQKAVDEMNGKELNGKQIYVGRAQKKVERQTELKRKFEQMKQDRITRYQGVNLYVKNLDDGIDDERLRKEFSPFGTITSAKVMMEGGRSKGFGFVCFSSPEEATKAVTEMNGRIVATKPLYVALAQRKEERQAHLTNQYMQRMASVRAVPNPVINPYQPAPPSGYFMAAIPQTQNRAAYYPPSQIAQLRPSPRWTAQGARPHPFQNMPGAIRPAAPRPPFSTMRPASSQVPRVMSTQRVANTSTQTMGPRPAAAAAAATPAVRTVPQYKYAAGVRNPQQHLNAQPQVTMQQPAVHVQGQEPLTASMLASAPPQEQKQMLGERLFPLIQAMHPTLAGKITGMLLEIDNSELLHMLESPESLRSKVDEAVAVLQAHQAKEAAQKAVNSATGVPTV", "test": "PABP poly(A) RNA binding inhibitors, primary screen, biochemical, fluorescence polarization, uHTS (AID 2014)"}, "Cytochrome P450 2C9": {"target": "Cytochrome P450 2C9 (Homo sapiens, UniProt P11712)", "sequence (P11712 whole entry)": "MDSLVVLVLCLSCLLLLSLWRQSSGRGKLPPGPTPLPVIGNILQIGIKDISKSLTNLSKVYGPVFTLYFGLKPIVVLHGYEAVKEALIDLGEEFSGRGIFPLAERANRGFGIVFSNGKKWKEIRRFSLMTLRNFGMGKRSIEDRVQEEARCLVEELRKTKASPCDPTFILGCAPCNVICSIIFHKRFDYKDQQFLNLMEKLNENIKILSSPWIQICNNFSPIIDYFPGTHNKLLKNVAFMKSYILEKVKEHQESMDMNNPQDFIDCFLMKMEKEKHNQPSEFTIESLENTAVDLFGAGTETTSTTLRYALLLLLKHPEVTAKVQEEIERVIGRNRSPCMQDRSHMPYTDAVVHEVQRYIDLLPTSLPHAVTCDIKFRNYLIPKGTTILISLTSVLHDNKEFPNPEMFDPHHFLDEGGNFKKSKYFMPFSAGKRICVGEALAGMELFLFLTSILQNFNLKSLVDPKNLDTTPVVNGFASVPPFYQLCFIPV", "conditions": "Potency"}, "[4]": {"target": "Neuropeptides B/W receptor type 1 (Homo sapiens, UniProt P48145)", "sequence (P48145 whole entry)": "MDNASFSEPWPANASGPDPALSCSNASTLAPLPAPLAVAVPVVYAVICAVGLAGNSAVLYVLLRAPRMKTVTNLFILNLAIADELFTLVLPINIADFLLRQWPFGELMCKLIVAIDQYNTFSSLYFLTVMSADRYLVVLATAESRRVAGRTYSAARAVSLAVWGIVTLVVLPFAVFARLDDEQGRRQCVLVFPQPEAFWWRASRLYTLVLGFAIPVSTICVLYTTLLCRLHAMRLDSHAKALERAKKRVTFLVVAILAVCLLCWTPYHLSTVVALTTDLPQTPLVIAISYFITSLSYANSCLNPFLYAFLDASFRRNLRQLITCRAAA", "test": "Fluorescence-based dose response cell-based high throughput screening assay to identify antagonists of the G-protein coupled receptor 7 (GPR7). [Related pubchem assays: 1952 (Screening assay (GPR7 antagonists).), 1880 (Summary AID.)]", "assay_type": "functional"}, "[5]": {"target": "T2, Neuropeptide Y receptor type 2 (Homo sapiens, UniProt P49146)", "T2 sequence (P49146 whole entry)": "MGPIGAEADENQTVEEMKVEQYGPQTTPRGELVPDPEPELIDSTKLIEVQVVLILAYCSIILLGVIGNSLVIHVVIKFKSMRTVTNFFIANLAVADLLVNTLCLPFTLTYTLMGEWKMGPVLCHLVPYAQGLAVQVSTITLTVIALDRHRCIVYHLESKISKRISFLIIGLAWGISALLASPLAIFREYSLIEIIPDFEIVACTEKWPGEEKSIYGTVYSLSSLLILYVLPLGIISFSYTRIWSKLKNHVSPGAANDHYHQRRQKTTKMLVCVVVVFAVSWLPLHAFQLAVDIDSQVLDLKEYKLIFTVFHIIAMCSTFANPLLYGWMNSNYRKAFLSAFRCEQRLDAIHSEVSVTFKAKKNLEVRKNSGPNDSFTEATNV", "test": "NPY-Y2 antagonist potency, selectivity check, dose response, counter-screen for NPY-Y1 antagonist project, cell-based (AID 1278)", "assay_type": "functional"}, "[6]": {"target": "Melanin-concentrating hormone receptor 1 (Homo sapiens, UniProt Q99705)", "sequence (Q99705 whole entry)": "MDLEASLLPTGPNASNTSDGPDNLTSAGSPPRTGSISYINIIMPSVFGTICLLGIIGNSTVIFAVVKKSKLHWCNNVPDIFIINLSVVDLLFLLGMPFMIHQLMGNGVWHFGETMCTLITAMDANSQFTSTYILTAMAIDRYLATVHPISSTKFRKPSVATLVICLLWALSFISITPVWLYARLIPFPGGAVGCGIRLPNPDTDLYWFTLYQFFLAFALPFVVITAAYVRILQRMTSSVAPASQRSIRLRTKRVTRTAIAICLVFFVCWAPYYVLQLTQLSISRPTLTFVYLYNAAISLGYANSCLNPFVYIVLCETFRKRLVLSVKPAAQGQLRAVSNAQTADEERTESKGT", "test": "Fluorescence-based counterscreen for antagonists of the G-protein coupled receptor 7 (GPR7): cell-based high throughput dose response assay to identify antagonists of the melanin-concentrating hormone receptor 1 (MCHR1).", "assay_type": "functional"}, "[7]": {"target": "T3, Neuropeptide Y receptor type 1 (Homo sapiens, UniProt P25929)", "T3 sequence (P25929 whole entry)": "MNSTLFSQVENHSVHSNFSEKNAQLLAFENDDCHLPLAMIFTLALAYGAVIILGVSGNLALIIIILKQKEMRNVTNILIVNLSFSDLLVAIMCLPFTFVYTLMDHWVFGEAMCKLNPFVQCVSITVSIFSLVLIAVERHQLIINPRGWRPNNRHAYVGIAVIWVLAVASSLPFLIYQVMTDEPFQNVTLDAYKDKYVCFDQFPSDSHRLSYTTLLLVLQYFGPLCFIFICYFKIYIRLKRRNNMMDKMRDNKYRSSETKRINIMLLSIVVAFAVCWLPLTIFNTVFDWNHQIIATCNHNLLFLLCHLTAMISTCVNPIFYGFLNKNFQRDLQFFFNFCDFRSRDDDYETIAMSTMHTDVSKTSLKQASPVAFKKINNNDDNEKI", "test": "NPY-Y1 receptor antagonist potency, dose response, cell-based (AID 1277)", "assay_type": "functional"}, "INS1": {"tested_on": "INS1", "test": "beta cell apoptosis inhibitors, cytokine rescue, dose response, luminescence, retest (AID 449756);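 further: cell death triggered by IL-1 beta plus TNF-alpha plus IFN-gamma mixture; protective hits raise ATP signal compared with cytokine alone wells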", "assay_type": "functional, cell-based", "conditions": "Rattus norvegicus, INS1"}},
  "note": "Activity calls are given as the source filed them.",
  "data": [
    {"smiles": "COc1ccc(C(=O)C[N+]2(C)CCOCC2)cc1", "values": [
      {"measurement": "IC50", "setting": "[1]", "result": "> 100 µM (inactive)"},
      {"measurement": "IC50", "setting": "[2]", "result": "> 50 µM (not active)"},
      {"measurement": "IC50", "setting": "[3]", "result": "4.41 µM (active)"}
    ]},
    {"smiles": "CC(C)C[C@@H](CC(=O)N[C@@H](CCC(=O)O)CC(=O)O)NC(=O)[C@@H]1CCCC[C@H]1NC(=O)C[C@H](CCCN)NC(=O)C[C@H](CO)NC(=O)[C@@H]1CNCC[C@H]1N", "values": [
      {"measurement": "AC50", "setting": "Cytochrome P450 2C9", "result": "31.6 µM (inconclusive)"}
    ]},
    {"smiles": "Cc1ccc(C(=O)C[n+]2cc(-c3ccccc3)n3c2CCCCC3)cc1", "values": [
      {"measurement": "IC50", "setting": "[4]", "result": "31.2 µM (not active)"},
      {"measurement": "IC50", "setting": "[5]", "result": "8.01 µM (active)"},
      {"measurement": "IC50", "setting": "[6]", "result": "> 14.6 µM (not active)"},
      {"measurement": "IC50", "setting": "[7]", "result": "6.06 µM (active)"},
      {"measurement": "AC50", "setting": "INS1", "result": "4.71 µM (active)"}
    ]}
  ]
}
